This experiment concerns the target T1, human QR2 (Homo sapiens, UniProt P16083).
T1 sequence (P16083 1-231): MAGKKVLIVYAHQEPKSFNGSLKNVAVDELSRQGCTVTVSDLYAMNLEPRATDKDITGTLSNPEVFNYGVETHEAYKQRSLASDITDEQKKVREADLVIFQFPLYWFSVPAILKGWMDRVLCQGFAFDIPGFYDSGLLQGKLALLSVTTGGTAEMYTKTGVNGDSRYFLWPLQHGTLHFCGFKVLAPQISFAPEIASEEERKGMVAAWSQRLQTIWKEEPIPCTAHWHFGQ
Briefly: Steady-state kinetic assay of QR2 inhibition. Type of experiment: biochemical. The settings on record: for average percent inhibition of QR2: at 100 μM inhibitor; for inhibition at 100 µM: read-out: average percent inhibition of QR2.

For the molecule `CN(C)c1ccc(NC(=O)c2ccc(O)cc2)cc1` [Analogue 8f, N-(4-(dimethylamino)phenyl)-4-hydroxybenzamide], the “average percent inhibition of QR2” value is on record as “eliminates inhibition of QR2”. In the case of `CN(C)c1ccc(C(=O)Nc2cc(O)cc(O)c2)cc1` [Analogue 8k, N-(3,5-dihydroxyphenyl)-4-(dimethylamino)benzamide], the “average percent inhibition of QR2” value was “eliminates inhibition of QR2”. The same measure, in the same setting: in the case of `COc1cc(OC)cc(C(=O)Nc2ccc3ccccc3c2)c1` [Analogue 8p, 3,5-dimethoxy-N-(naphthalen-2-yl)benzamide] it was “no inhibition of QR2”. As to `CC(C)Oc1cc(/C=C(\C#N)c2ccc(O)cc2)cc(OC(C)C)c1` [Analogue 4a, (Z)-3-(3,5-diisopropoxyphenyl)-2-(4-hydroxyphenyl)acrylonitrile], the inhibition (as a rule, the change of the read-out against control, counted positive when it falls) at 100 µM is at most 20%. In the case of `COc1ccc(/C(C#N)=C/c2cc(OC(C)C)cc(OC(C)C)c2)cc1` [Analogue 4c, (Z)-3-(3,5-diisopropoxyphenyl)-2-(4-methoxyphenyl)acrylonitrile], the inhibition at 100 µM was at most 20%.

Source of the values: publication PMC3804415 (Bioorganic & medicinal chemistry, 2013).
